In BindingDB's records for doi:10.7270/Q2TX3CTT (Broad Institute, 2010):
Structures can show the parent of a compound that is named as a salt.

Target: Glycogen synthase kinase-3 beta (Homo sapiens, UniProt P49841)
Assay: concentration-response blocking of human GSK3B – biochemical, luminescence, cell-free homogeneous, retest, dose response (AID 434954)

Sequence of Glycogen synthase kinase-3 beta (P49841 whole entry): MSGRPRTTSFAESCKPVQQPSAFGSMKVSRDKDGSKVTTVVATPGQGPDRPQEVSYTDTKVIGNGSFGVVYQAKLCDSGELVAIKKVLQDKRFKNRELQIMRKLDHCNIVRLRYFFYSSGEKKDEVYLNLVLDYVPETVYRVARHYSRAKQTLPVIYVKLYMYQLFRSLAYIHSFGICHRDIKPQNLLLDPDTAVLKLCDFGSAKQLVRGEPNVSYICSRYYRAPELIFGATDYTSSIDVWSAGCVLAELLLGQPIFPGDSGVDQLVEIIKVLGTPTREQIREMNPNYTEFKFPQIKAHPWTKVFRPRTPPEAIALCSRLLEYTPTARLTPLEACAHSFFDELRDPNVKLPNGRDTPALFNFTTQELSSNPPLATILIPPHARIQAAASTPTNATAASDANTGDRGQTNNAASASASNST

Structure (SMILES) | EC50 [µM]
O=C(NCCc1nnc2ccc(NCC3CCCO3)nn12)c1ccccc1 (configuration not stated) [N-(2-{6-[(tetrahydrofuran-2-ylmethyl)amino][1,2,4]triazolo[4,3-b]pyridazin-3-yl}ethyl)benzamide] | > 300
CCCCC(=O)Nc1ccc(C(=O)NNC(=O)CCCOc2ccc(Cl)cc2Cl)cc1 [N-[4-[[[4-(2,4-dichlorophenoxy)-1-oxobutyl]hydrazo]-oxomethyl]phenyl]pentanamide] | > 300
Cc1ccc(S(=O)(=O)CC(=O)c2cc3cccc(C)c3oc2=O)cc1 [8-methyl-3-[2-(4-methylphenyl)sulfonyl-1-oxoethyl]-1-benzopyran-2-one] | > 300
CC(C)Nc1nc(-c2ccncc2)nc(-c2ccc(Cl)cc2)c1C#N [SMR000333194] | > 300
C=CCN=C(NC#N)SCC(=O)c1cccc(OC)c1 [[2-(3-methoxyphenyl)-2-oxidanylidene-ethyl] N-cyano-N'-prop-2-enyl-carbamimidothioate] | 1.23
O=C1Nc2cc(C(=O)NCCCN3CCCC3)ccc2S/C1=C/c1ccccc1F [(2E)-2-[(2-fluorophenyl)methylidene]-3-oxo-N-(3-pyrrolidin-1-ylpropyl)-4H-1,4-benzothiazine-6-carboxamide] | 6.99
O=C(NC(Cc1ccccc1)c1ccc2c(c1)OCCCO2)c1ccccc1 (configuration not stated) | > 300
Nc1nonc1-n1nnc(C(=O)NN=Cc2ccc(O)cc2)c1CN1CCCCCC1 [1-(4-azanyl-1,2,5-oxadiazol-3-yl)-5-(azepan-1-ylmethyl)-N'-[(4-oxidanylidenecyclohexa-2,5-dien-1-ylidene)methyl]-1,2,3-triazole-4-carbohydrazide] | 1.85
COc1cccc(Nc2nc(-c3ccccc3)nc3ccccc23)c1 | > 300
Cn1c(SCC(=O)Nc2ccccc2)nc2ccccc2c1=O [2-(3-Methyl-4-oxo-3,4-dihydro-quinazolin-2-ylsulfanyl)-N-phenyl-acetamide] | > 300
Cc1ccc2c(c1)cc1c(=O)n(CC(=O)NCCN3CCCC3)nc(C)n12 | > 300
CCn1c(SCC(=O)Nc2ccc(C(C)=O)cc2)nnc1C1CC1 [N-(4-acetylphenyl)-2-[(5-cyclopropyl-4-ethyl-1,2,4-triazol-3-yl)sulfanyl]acetamide] | > 300
COCCOC(=O)c1c(C)oc2ccc(OC(=O)c3cccs3)cc12 [MLS000111716] | > 300
COc1ccc2nc3c(cc2c1)c(NC(=O)CC(C)C)nn3CC(C)C [N-[6-methoxy-1-(2-methylpropyl)-3-pyrazolo[3,4-b]quinolinyl]-3-methylbutanamide] | > 300
Cc1cc(=O)nc2c3ccccc3n(CC(=O)NCCCN3CCCCC3C)n12 (configuration not stated) [MLS001115992] | > 300
O=C(NN=Cc1ccco1)Nc1cccc(Cl)c1 [SMR000203570] | 38.1
COc1ccc(CCNC(=O)C(C(=O)c2ccccc2)n2cc(Cl)ccc2=O)cc1OC (configuration not stated) [2-(5-chloro-2-oxopyridin-1-yl)-N-[2-(3,4-dimethoxyphenyl)ethyl]-3-oxo-3-phenylpropanamide] | > 300
O=C(CN1CCN(Cc2ccccc2Cl)CC1)NN=Cc1ccccn1 | 51.5
Cc1cccc(Nc2nc(N)c([N+](=O)[O-])c(NCc3ccccc3)n2)c1 [MLS000332785] | 21.4
NC(=S)NN=Cc1cn(CCC(=O)O)nc1-c1cccc(Br)c1 [3-[3-(3-bromophenyl)-4-[(carbamothioylhydrazinylidene)methyl]-1-pyrazolyl]propanoic acid] | > 300
COc1ccc(OC)c(C(=O)c2coc3ccc(OCC(=O)O)cc23)c1 [SMR000135205] | > 300

Structure (SMILES) | EC50 [µM]
COC(=O)C(C)Oc1cc(OC(C)C(=O)OC)c2c(-c3ccccc3)cc(=O)oc2c1 (configuration not stated) [methyl 2-[5-(1-methoxy-1-oxopropan-2-yl)oxy-2-oxo-4-phenylchromen-7-yl]oxypropanoate] | > 300
CCCCOC(=O)C1C(C)=Nc2ncnn2C1c1cc(OC)c(OC)cc1OC (configuration not stated) [butyl 5-methyl-7-(2,4,5-trimethoxyphenyl)-4,7-dihydro[1,2,4]triazolo[1,5-a]pyrimidine-6-carboxylate] | > 300
Cc1cc(CN(C)C(=O)c2ccc(OC3CCN(CCc4ccccc4)CC3)cc2)on1 [MLS001100796] | > 300
COC(=O)c1ccc2c(=O)n(CC3CCCO3)c(SCC(=O)Nc3ccccc3Cl)nc2c1 (configuration not stated) [2-[[2-(2-chloroanilino)-2-keto-ethyl]thio]-4-keto-3-(tetrahydrofurfuryl)quinazoline-7-carboxylic acid methyl ester] | > 300
COc1cc(NC(=S)Nc2ccccn2)c(OC)cc1Cl [1-(4-chloranyl-2,5-dimethoxy-phenyl)-3-pyridin-2-yl-thiourea] | 12.3
CN1/C(=C/C=C(/C#N)C(N)=O)C(C)(C)c2ccccc21 [(Z,4E)-2-cyano-4-(1,3,3-trimethyl-2-indolylidene)-2-butenamide] | 15.5
COc1ccc(-c2csc(N(CC3CCCO3)C(=O)c3ccccc3)n2)cc1 (configuration not stated) | > 300
O=C(CSc1ccc2nnc(-c3ccc(F)cc3)n2n1)NCc1ccco1 [2-[[3-(4-fluorophenyl)-[1,2,4]triazolo[4,3-b]pyridazin-6-yl]thio]-N-(2-furanylmethyl)acetamide] | 39.9
Cc1cc(Cl)nc(Cl)c1C(=O)N1CCOCC1 [SMR000307050] | > 300
NC(=O)c1ccc(N2CCCCCC2)c([N+](=O)[O-])c1 [MLS000688695] | > 300
Cc1cc(OCC(O)CNC(C)c2ccccc2)ccc1C(C)C (configuration not stated) [1-(3-methyl-4-propan-2-ylphenoxy)-3-(1-phenylethylamino)-2-propanol;hydrochloride] | > 300
COc1cccc(C2c3c(n[nH]c3C)N=C3CC(C)(C)CC(=O)C32)c1 (configuration not stated) [SMR000347812] | 0.958
COc1cc2[nH]c(=O)n3nc(-c4ccccc4)nc3c2cc1OC [8,9-dimethoxy-2-phenyl[1,2,4]triazolo[1,5-c]quinazolin-5(6H)-one] | 5.34
O=[N+]([O-])c1ccccc1Oc1ccccc1Cl | > 300
CC(C)CNc1nc(N)c([N+](=O)[O-])c(NCC2CCCO2)n1 (configuration not stated) | 6.1
CC1(C)CC(=O)C2C(=Nc3cc4c(cc3C2c2ccc(F)cc2)OCO4)C1 (configuration not stated) [MLS000528763] | > 300
COc1cccc2c1cc1c(=O)n(CC(=O)NC3CCCCC3)nc(C)n12 [N-cyclohexyl-2-(9-methoxy-4-methyl-1-oxidanylidene-[1,2,4]triazino[4,5-a]indol-2-yl)ethanamide] | > 300
CSc1nc(NCC(C)O)c2c3c(sc2n1)CN(C)CC3 (configuration not stated) [1-[(7-methyl-2-methylsulfanyl-6,8-dihydro-5H-pyrido[4,5]thieno[1,2-c]pyrimidin-4-yl)amino]propan-2-ol] | 18.3
CCOC(=O)COC(=O)c1ccc(O)cc1 [(2-ethoxy-2-oxoethyl) 4-hydroxybenzoate] | > 300
COc1ccc2c(C)c(CC(=O)N3CCN(C(=O)C4COc5ccccc5O4)CC3)c(=O)oc2c1 (configuration not stated) | > 300
Cc1ccc(C(=O)c2coc3ccc(O)c(Cl)c23)cc1 [(4-chloro-5-hydroxy-3-benzofuranyl)-(4-methylphenyl)methanone] | > 300

Structure (SMILES) | EC50 [µM]
O=C1Nc2cc(C(=O)NCCN3CCCCCC3)ccc2S/C1=C\c1ccccc1 [SMR000635247] | > 300
CC(=O)N(\C=C/C=C/C=C1\Sc2ccccc2C1=O)c1ccccc1 [N-[(1Z,3E,5Z)-5-(3-oxo-1-benzothien-2(3H)-ylidene)penta-1,3-dienyl]-N-phenylacetamide] | > 300
CCOC(=O)c1c(S(=O)(=O)NCC(=O)Nc2ccccc2)c(C)n(C)c1C [MLS001028712] | > 300
COc1ccc(OC)c(Nc2nc(N(C)c3ccccc3)nc(N)c2[N+](=O)[O-])c1 [MLS001215240] | > 300
CCNc1nc(N)c(C(=O)c2ccc(Cl)s2)s1 [[4-amino-2-(ethylamino)-1,3-thiazol-5-yl]-(5-chlorothiophen-2-yl)methanone] | 0.174
Cc1ccccc1CSc1nnc([C@@H]2CCCN2)o1 [MLS000333752] | > 300
COC(=O)c1nnn(-c2nonc2N)c1CSc1ccccn1 [1-(4-amino-1,2,5-oxadiazol-3-yl)-5-[(2-pyridinylthio)methyl]-4-triazolecarboxylic acid methyl ester] | 21.1
CC(C)OCCCNC(=O)c1ccc(CS(=O)(=O)Cc2ccccc2F)o1 [5-[(2-fluorophenyl)methylsulfonylmethyl]-N-(3-propan-2-yloxypropyl)furan-2-carboxamide] | > 300
CCN(CC)Cc1c(C(=O)OC)nnn1-c1nonc1N [MLS000085717] | > 300
CCCn1nc(NC(=O)C2CCCO2)c2cc3cccc(C)c3nc21 (configuration not stated) [N-(8-methyl-1-propylpyrazolo[3,4-b]quinolin-3-yl)oxolane-2-carboxamide] | > 300
CCCCn1nc(NC(=O)CC(C)C)c2cc3cc(OC)ccc3nc21 [N-(1-butyl-6-methoxy-3-pyrazolo[3,4-b]quinolinyl)-3-methylbutanamide] | > 300
O=C1c2ccccc2-c2onc3ccc(NCCCn4ccnc4)c1c23 [SMR000044769] | 167
COc1ccc(C(=O)OCCc2sc[n+](CC(=O)c3ccccc3)c2C)cc1 [4-methoxybenzoic acid 2-(4-methyl-3-phenacyl-5-thiazol-3-iumyl)ethyl ester;bromide] | 26
Cc1ccc(C2c3c(n[nH]c3C)N=C3CC(C)(C)CC(=O)C32)cc1 (configuration not stated) [3,7,7-trimethyl-4-(4-methylphenyl)-2,4,6,8-tetrahydro-1H-pyrazolo[3,4-b]quinolin-5-one] | 9.26
Clc1ccccc1Nc1nc(-c2ccncc2)nc2ccccc12 [MLS001163918] | > 300
CCN(CC)C(=O)COc1cc(C)cc2oc(=O)cc(-c3ccccc3)c12 [N,N-diethyl-2-(7-methyl-2-oxo-4-phenylchromen-5-yl)oxyacetamide] | > 300
O=C1CCCC2=Nc3nc(SCc4ccccc4)nn3C(c3cccs3)C12 (configuration not stated) [2-(phenylmethylthio)-9-thiophen-2-yl-5,6,7,9-tetrahydro-1H-[1,2,4]triazolo[5,1-b]quinazolin-8-one] | > 300
O=C(NCCO)Nc1ccc2nsnc2c1 [MLS000708760] | > 300
COc1cc(CNC=C2C(=O)NC(=O)N(C(C)(C)C)C2=O)cc(OC)c1 [(5Z)-1-tert-butyl-5-[[(3,5-dimethoxyphenyl)methylamino]methylidene]-1,3-diazinane-2,4,6-trione] | > 300
O=C(Nc1ccc(O)c2c(=O)cc(-c3ccccc3Cl)oc12)c1cccs1 [SMR000465219] | 16.7
